Measured values as given in the supplement of paper PMC10307832.

Tests used:
Test in all cases: relative viability (nuclei count vs DMSO), 5 days (fraction); higher = more cells survive
[1] = compound: C1CN(CCN1)C2=CC=C(C=C2)C3=CN4C(=C(C=N4)C5=CC=NC6=CC=CC=C56)N=C3 [DM3189] + NC(=O)Nc1cc(-c2cccc(F)c2)sc1C(=O)N[C@H]1CCCNC1 [AZD7762] (partner 0.2 µM)
In short: (§1)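 Lung cancer cell lines in 1536-well plates were dosed by pin tool the day after seeding, either with one drug alone or with a fixed anchor-drug dose plus five library-drug doses (not always all listed) in √10 steps. After 5 days, cells were fixed and their nuclei stained in one step (final 0.05% Triton X-100, 1% formaldehyde, 1 ug/ml Hoechst), then counted on 4× images. Relative viability is the nuclei count in treated wells divided by that in vehicle wells. Values are medians of duplicate plates.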

[2] = compound: C1CN(CCN1)C2=CC=C(C=C2)C3=CN4C(=C(C=N4)C5=CC=NC6=CC=CC=C56)N=C3 [DM3189] + Cc1nc(Nc2ncc(C(=O)Nc3c(C)cccc3Cl)s2)cc(N2CCN(CCO)CC2)n1 [Dasatinib] (partner 0.075 µM)
In short: as §1

[3] = compound: C1CN(CCN1)C2=CC=C(C=C2)C3=CN4C(=C(C=N4)C5=CC=NC6=CC=CC=C56)N=C3 [DM3189] + CC(=O)Nc1cccc(-n2c(=O)n(C3CC3)c(=O)c3c(Nc4ccc(I)cc4F)n(C)c(=O)c(C)c32)c1 [Trametinib] (partner 0.02 µM)
In short: as §1

[4] = compound: C1CN(CCN1)C2=CC=C(C=C2)C3=CN4C(=C(C=N4)C5=CC=NC6=CC=CC=C56)N=C3 [DM3189] + CC(=O)c1c(C)c2cnc(Nc3ccc(N4CCNCC4)cn3)nc2n(C2CCCC2)c1=O [Palbociclib] (partner 0.5 µM)
In short: as §1

[5] = compound: C1CN(CCN1)C2=CC=C(C=C2)C3=CN4C(=C(C=N4)C5=CC=NC6=CC=CC=C56)N=C3 [DM3189] + Cc1cc(Nc2cc(N3CCN(C)CC3)nc(Sc3ccc(NC(=O)C4CC4)cc3)n2)n[nH]1 [Tozasertib] (partner 0.1 µM)
In short: as §1

Cell Line: LC-2-ad
- relative viability ([1]; first compound 0.08 µM): 0.927
- relative viability ([1]; first compound 0.253 µM): 0.872
- relative viability ([1]; first compound 0.8 µM): 0.872
- relative viability ([1]; first compound 2.53 µM): 0.8
- relative viability ([2]; first compound 0.08 µM): 0.636
- relative viability ([2]; first compound 0.253 µM): 0.487
- relative viability ([2]; first compound 0.8 µM): 0.458
- relative viability ([2]; first compound 2.53 µM): 0.572
- relative viability ([3]; first compound 0.08 µM): 0.938
- relative viability ([3]; first compound 0.253 µM): 0.901
- relative viability ([3]; first compound 0.8 µM): 0.875
- relative viability ([3]; first compound 2.53 µM): 0.919
- relative viability ([4]; first compound 0.08 µM): 0.561
- relative viability ([4]; first compound 0.253 µM): 0.507
- relative viability ([4]; first compound 0.8 µM): 0.487
- relative viability ([4]; first compound 2.53 µM): 0.49
- relative viability ([5]; first compound 0.08 µM): 0.461
- relative viability ([5]; first compound 0.253 µM): 0.396
- relative viability ([5]; first compound 0.8 µM): 0.474
- relative viability ([5]; first compound 2.53 µM): 0.482

Cell Line: NCI-H358
- relative viability ([1]; first compound 0.08 µM): 0.5
- relative viability ([1]; first compound 0.253 µM): 0.502
- relative viability ([1]; first compound 0.8 µM): 0.517
- relative viability ([1]; first compound 2.53 µM): 0.444
- relative viability ([2]; first compound 0.08 µM): 0.177
- relative viability ([2]; first compound 0.253 µM): 0.166
- relative viability ([2]; first compound 0.8 µM): 0.17
- relative viability ([2]; first compound 2.53 µM): 0.163
- relative viability ([3]; first compound 0.08 µM): 0.133
- relative viability ([3]; first compound 0.253 µM): 0.111
- relative viability ([3]; first compound 0.8 µM): 0.129
- relative viability ([3]; first compound 2.53 µM): 0.129
- relative viability ([4]; first compound 0.08 µM): 0.278
- relative viability ([4]; first compound 0.253 µM): 0.13
- relative viability ([4]; first compound 0.8 µM): 0.126
- relative viability ([4]; first compound 2.53 µM): 0.127
- relative viability ([5]; first compound 0.08 µM): 0.12
- relative viability ([5]; first compound 0.253 µM): 0.0936
- relative viability ([5]; first compound 0.8 µM): 0.102
- relative viability ([5]; first compound 2.53 µM): 0.11

Cell Line: NCI-H2170
- relative viability ([1]; first compound 0.08 µM): 0.933
- relative viability ([1]; first compound 0.253 µM): 0.884
- relative viability ([1]; first compound 0.8 µM): 0.875
- relative viability ([1]; first compound 2.53 µM): 0.652
- relative viability ([2]; first compound 0.08 µM): 0.718
- relative viability ([2]; first compound 0.253 µM): 0.466
- relative viability ([2]; first compound 0.8 µM): 0.591
- relative viability ([2]; first compound 2.53 µM): 0.515
- relative viability ([3]; first compound 0.08 µM): 1.09
- relative viability ([3]; first compound 0.253 µM): 0.96
- relative viability ([3]; first compound 0.8 µM): 0.835
- relative viability ([3]; first compound 2.53 µM): 0.825
- relative viability ([4]; first compound 0.08 µM): 0.484
- relative viability ([4]; first compound 0.253 µM): 0.363
- relative viability ([4]; first compound 0.8 µM): 0.368
- relative viability ([4]; first compound 2.53 µM): 0.347
- relative viability ([5]; first compound 0.08 µM): 0.84
- relative viability ([5]; first compound 0.253 µM): 0.651
- relative viability ([5]; first compound 0.8 µM): 0.525
- relative viability ([5]; first compound 2.53 µM): 0.71

Cell Line: A-427
- relative viability ([1]; first compound 0.08 µM): 0.684
- relative viability ([1]; first compound 0.253 µM): 0.701
- relative viability ([1]; first compound 0.8 µM): 0.677
- relative viability ([1]; first compound 2.53 µM): 0.723
- relative viability ([2]; first compound 0.08 µM): 0.765
- relative viability ([2]; first compound 0.253 µM): 0.78
- relative viability ([2]; first compound 0.8 µM): 0.684
- relative viability ([2]; first compound 2.53 µM): 0.732
- relative viability ([3]; first compound 0.08 µM): 0.865
- relative viability ([3]; first compound 0.253 µM): 0.736
- relative viability ([3]; first compound 0.8 µM): 0.638
- relative viability ([3]; first compound 2.53 µM): 0.819
- relative viability ([4]; first compound 0.08 µM): 0.593
- relative viability ([4]; first compound 0.253 µM): 0.492
- relative viability ([4]; first compound 0.8 µM): 0.474
- relative viability ([4]; first compound 2.53 µM): 0.524
- relative viability ([5]; first compound 0.08 µM): 0.191
- relative viability ([5]; first compound 0.253 µM): 0.212
- relative viability ([5]; first compound 0.8 µM): 0.204
- relative viability ([5]; first compound 2.53 µM): 0.216
